Assay results reported in BindingDB's records for doi:10.1021/jm00016a009 (Purdue University, 1995).

Assay: Effective concentration as Adenylate cyclase activity was measured in rat homogenate

SMILES | EC50 [nM]
CCc1ccc2c(c1)[C@@H]1c3cc(O)c(O)cc3CC[C@H]1NC2 [(6aR,12bS)-2-Ethyl-5,6,6a,7,8,12b-hexahydro-benzo[a]phenanthridine-10,11-diol] | 610
Oc1cc2c(cc1O)[C@H]1c3cc(-c4ccccc4)ccc3CN[C@@H]1CC2 [(6aR,12bS)-2-Phenyl-5,6,6a,7,8,12b-hexahydro-benzo[a]phenanthridine-10,11-diol] | 10
Cc1ccc2c(c1)CN[C@@H]1CCc3cc(O)c(O)cc3[C@@H]21 [(6aR,12bS)-3-Methyl-5,6,6a,7,8,12b-hexahydro-benzo[a]phenanthridine-10,11-diol] | 134
CCCN1Cc2cc(C)ccc2[C@@H]2c3cc(O)c(O)cc3CC[C@H]21 [(6aR,12bS)-3-Methyl-6-propyl-5,6,6a,7,8,12b-hexahydro-benzo[a]phenanthridine-10,11-diol] | 10
Cc1cccc2c1CN[C@@H]1CCc3cc(O)c(O)cc3[C@@H]21 [(6aR,12bS)-4-Methyl-5,6,6a,7,8,12b-hexahydro-benzo[a]phenanthridine-10,11-diol] | 151
Oc1ccc2c(c1)[C@@H]1c3cc(O)c(O)cc3CC[C@H]1NC2 [(6aR,12bS)-5,6,6a,7,8,12b-Hexahydro-benzo[a]phenanthridine-2,10,11-triol] | 148
Oc1ccc2c(c1)CN[C@@H]1CCc3cc(O)c(O)cc3[C@@H]21 [(6aR,12bS)-5,6,6a,7,8,12b-Hexahydro-benzo[a]phenanthridine-3,10,11-triol] | 130
